Experimental data published in patent publication US10782295B2, “Cysteine-reactive ligand discovery in proteomes” (THE SCRIPPS RESEARCH INSTITUTE, priority 2013, dated 2020).

How the values were obtained:
Experiment in all cases: competitive isoTOP-ABPP, MDA-MB-231 soluble proteome
Format in all cases: binding
PSMB8 = molecular target: T1, PSMB8 (Homo sapiens, UniProt P28062); details: 100 μM LDE, 60 min; peptide LLSNMMC*QYR
T1 construct: directly in native proteomes; endogenous in cells; host or cells: MDA-MB-231
T1 sequence (P28062 73-276): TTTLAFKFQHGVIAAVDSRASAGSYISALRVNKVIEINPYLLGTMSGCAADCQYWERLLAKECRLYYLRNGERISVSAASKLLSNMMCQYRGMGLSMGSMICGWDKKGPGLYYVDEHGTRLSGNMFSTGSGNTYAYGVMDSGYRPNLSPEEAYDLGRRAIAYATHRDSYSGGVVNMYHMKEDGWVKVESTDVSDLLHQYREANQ

CKAP4 = molecular target: T2, CKAP4 (Homo sapiens, UniProt Q07065); details: 100 μM LDE, 60 min; peptide SSSSSSASAAAAAAAASSSASC*SR
T2 construct: directly in native proteomes; endogenous in cells; host or cells: MDA-MB-231
T2 sequence (Q07065 1-602): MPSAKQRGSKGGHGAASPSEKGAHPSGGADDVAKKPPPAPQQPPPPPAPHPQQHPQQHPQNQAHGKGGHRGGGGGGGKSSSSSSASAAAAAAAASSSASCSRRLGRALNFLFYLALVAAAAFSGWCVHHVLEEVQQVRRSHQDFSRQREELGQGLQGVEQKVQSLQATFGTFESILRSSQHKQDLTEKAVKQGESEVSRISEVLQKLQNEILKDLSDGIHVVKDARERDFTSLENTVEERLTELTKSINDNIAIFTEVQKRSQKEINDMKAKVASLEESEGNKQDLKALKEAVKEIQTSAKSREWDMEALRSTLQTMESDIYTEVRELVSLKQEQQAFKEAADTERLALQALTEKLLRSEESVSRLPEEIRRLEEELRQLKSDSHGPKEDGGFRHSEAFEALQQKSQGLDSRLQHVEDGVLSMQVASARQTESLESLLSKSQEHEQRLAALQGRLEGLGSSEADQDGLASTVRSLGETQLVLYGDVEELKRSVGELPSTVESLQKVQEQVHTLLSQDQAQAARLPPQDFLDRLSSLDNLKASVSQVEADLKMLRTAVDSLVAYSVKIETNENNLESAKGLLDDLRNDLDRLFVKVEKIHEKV

RPL24 = molecular target: T3, RPL24 (Homo sapiens, UniProt P83731); details: 100 μM LDE, 60 min; peptide C*ESAFLSK
T3 construct: directly in native proteomes; endogenous in cells; host or cells: MDA-MB-231

DYNC1L11 = molecular target: T4, DYNC1L11 (Homo sapiens, UniProt Q9Y6G9); details: 100 μM LDE, 60 min; peptide SEQ ID NO: 25 (...NLWSC*ILSEVSTR)
T4 construct: directly in native proteomes; endogenous in cells; host or cells: MDA-MB-231
T4 sequence (Q9Y6G9 whole entry): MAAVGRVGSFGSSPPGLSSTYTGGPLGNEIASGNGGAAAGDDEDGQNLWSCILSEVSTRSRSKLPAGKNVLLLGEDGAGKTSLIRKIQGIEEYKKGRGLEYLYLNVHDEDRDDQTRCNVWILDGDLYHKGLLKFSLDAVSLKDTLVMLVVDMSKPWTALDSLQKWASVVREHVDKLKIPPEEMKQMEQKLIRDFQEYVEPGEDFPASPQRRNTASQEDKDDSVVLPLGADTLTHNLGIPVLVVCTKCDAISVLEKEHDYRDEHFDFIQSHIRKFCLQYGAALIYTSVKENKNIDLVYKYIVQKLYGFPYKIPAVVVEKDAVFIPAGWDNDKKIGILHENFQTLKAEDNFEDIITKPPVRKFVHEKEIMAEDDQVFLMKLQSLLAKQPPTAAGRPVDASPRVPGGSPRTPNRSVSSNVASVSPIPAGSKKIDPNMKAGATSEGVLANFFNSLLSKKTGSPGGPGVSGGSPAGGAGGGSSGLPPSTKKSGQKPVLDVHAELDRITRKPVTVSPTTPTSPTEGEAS

WDR45L = molecular target: T5, WDR45L (Homo sapiens, UniProt Q5MNZ6); details: 100 μM LDE, 60 min; peptide C*NYLALVGGGK
T5 construct: directly in native proteomes; endogenous in cells; host or cells: MDA-MB-231
T5 sequence (Q5MNZ6 whole entry): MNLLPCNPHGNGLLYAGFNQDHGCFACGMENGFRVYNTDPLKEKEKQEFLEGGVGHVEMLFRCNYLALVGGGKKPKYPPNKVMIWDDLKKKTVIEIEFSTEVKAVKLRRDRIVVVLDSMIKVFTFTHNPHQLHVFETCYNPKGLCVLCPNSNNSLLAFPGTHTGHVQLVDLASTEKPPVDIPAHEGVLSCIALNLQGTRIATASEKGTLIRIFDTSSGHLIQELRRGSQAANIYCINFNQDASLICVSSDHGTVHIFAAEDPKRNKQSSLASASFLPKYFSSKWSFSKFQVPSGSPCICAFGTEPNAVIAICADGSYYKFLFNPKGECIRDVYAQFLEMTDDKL

## CCCCCCCCCCCCC/C=C/C=O [2-HD, 2-trans-hexadecenal]
PSMB8
  R value (isoTOP-ABPP ratio heavy/light) for IA-labeled cysteine of PSMB8: 1.05
CKAP4
  R value (isoTOP-ABPP ratio heavy/light) for IA-labeled cysteine of CKAP4: 1.08
RPL24
  R value (isoTOP-ABPP ratio heavy/light) for IA-labeled cysteine of RPL24: 1.25
DYNC1L11
  R value (isoTOP-ABPP ratio heavy/light) for IA-labeled cysteine of DYNC1L11: 1.1
WDR45L
  R value (isoTOP-ABPP ratio heavy/light) for IA-labeled cysteine of WDR45L: 1.06

## CCCCCC(O)/C=C/C=O (stereo not drawn) [4-HNE, 4-Hydroxynonenal]
PSMB8
  R value (isoTOP-ABPP ratio heavy/light) for IA-labeled cysteine of PSMB8: 1.19
CKAP4
  R value (isoTOP-ABPP ratio heavy/light) for IA-labeled cysteine of CKAP4: 7.73
RPL24
  R value (isoTOP-ABPP ratio heavy/light) for IA-labeled cysteine of RPL24: 1.74
DYNC1L11
  R value (isoTOP-ABPP ratio heavy/light) for IA-labeled cysteine of DYNC1L11: 2.59
WDR45L
  R value (isoTOP-ABPP ratio heavy/light) for IA-labeled cysteine of WDR45L: 3.34

## CCCCC/C=C/C=C1/C(=O)C=C[C@@H]1C/C=C\CCCC(=O)O [PGJ2, 15-deoxy-Δ12,14-prostaglandin J2]
PSMB8
  R value (isoTOP-ABPP ratio heavy/light) for IA-labeled cysteine of PSMB8: 5.86
CKAP4
  R value (isoTOP-ABPP ratio heavy/light) for IA-labeled cysteine of CKAP4: 3.33
RPL24
  R value (isoTOP-ABPP ratio heavy/light) for IA-labeled cysteine of RPL24: 6.78
DYNC1L11
  R value (isoTOP-ABPP ratio heavy/light) for IA-labeled cysteine of DYNC1L11: 5.18
WDR45L
  R value (isoTOP-ABPP ratio heavy/light) for IA-labeled cysteine of WDR45L: 6.45
